Legend:
[1] = system: wild oat; assay: Test Example 5: herbicidal effect by foliage application, plastic box (Table 20, symbol I); format: in vivo, wild oat (Avena fatua); settings: foliage application, 320 g/ha, three weeks after application
Outline: (§1)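 Plants were sown into sterilized diluvial soil under about 1.5 cm cover and kept in a greenhouse at 25° C. to 30° C. Fourteen days on, foliage received an even spray of the diluted emulsion. Herbicidal or crop effect was judged three weeks afterwards.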

[2] = system: green foxtail; assay: Test Example 4: herbicidal effect by soil treatment (Table 19, symbol G); format: in vivo, green foxtail (Setaria viridis); settings: amount of applied herbicide 320 g/ha
Outline: (§2)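 Pre-emergence style soil spray: seeds under ~1.5 cm sterilized diluvial soil received a uniform coat of emulsion diluted to the predetermined herbicide amount. Greenhouse 25–30° C; readout at week three on previously defined criteria.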

[3] = system: redroot pigweed; assay: Test Example 5: herbicidal effect by foliage application, plastic box (Table 20, symbol N); format: in vivo, redroot pigweed (Amaranthus retroflexus); settings: foliage application, 320 g/ha, three weeks after application
Outline: as §1

[4] = system: windgrass; assay: Test Example 4: herbicidal effect by soil treatment (Table 19, symbol L); format: in vivo, windgrass (Apera spica-venti); settings: amount of applied herbicide 320 g/ha
Outline: as §2

[5] = system: velvetleaf; assay: Test Example 4: herbicidal effect by soil treatment (Table 19, symbol M); format: in vivo, velvetleaf (Abutilon theophrasti); settings: amount of applied herbicide 320 g/ha
Outline: as §2

[6] = system: windgrass; assay: Test Example 5: herbicidal effect by foliage application, plastic box (Table 20, symbol L); format: in vivo, windgrass (Apera spica-venti); settings: foliage application, 320 g/ha, three weeks after application
Outline: as §1

[7] = system: southern crabgrass; assay: Test Example 5: herbicidal effect by foliage application, plastic box (Table 20, symbol F); format: in vivo, southern crabgrass (Digitaria ciliaris); settings: foliage application, 320 g/ha, three weeks after application
Outline: as §1

[8] = system: barnyard grass; assay: Test Example 5: herbicidal effect by foliage application, plastic box (Table 20, symbol H); format: in vivo, barnyard grass (Echinochloa crus-galli); settings: foliage application, 320 g/ha, three weeks after application
Outline: as §1

[9] = system: blackgrass; assay: Test Example 4: herbicidal effect by soil treatment (Table 19, symbol J); format: in vivo, blackgrass (Alopecurus myosuroides); settings: amount of applied herbicide 320 g/ha
Outline: as §2

[10] = system: lambsquarters; assay: Test Example 5: herbicidal effect by foliage application, plastic box (Table 20, symbol O); format: in vivo, lambsquarters (Chenopodium album); settings: foliage application, 320 g/ha, three weeks after application
Outline: as §1

[11] = system: barnyard grass; assay: Test Example 3: herbicidal effect by foliage application, Wagner pot (Table 18, symbol H); format: in vivo, barnyard grass (Echinochloa crus-galli)
Outline: (§3)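 Plants were sown in alluvial soil held under 0.1–0.5 cm standing water and grown 14 days in a greenhouse at 25–30 °C. An emulsifiable formulation, water-diluted to the set dose, was then sprayed onto the foliage, and effects were scored three weeks later using previously defined criteria.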

[12] = system: velvetleaf; assay: Test Example 5: herbicidal effect by foliage application, plastic box (Table 20, symbol M); format: in vivo, velvetleaf (Abutilon theophrasti); settings: foliage application, 320 g/ha, three weeks after application
Outline: as §1

[13] = system: wild oat; assay: Test Example 4: herbicidal effect by soil treatment (Table 19, symbol I); format: in vivo, wild oat (Avena fatua); settings: amount of applied herbicide 320 g/ha
Outline: as §2

[14] = system: lambsquarters; assay: Test Example 4: herbicidal effect by soil treatment (Table 19, symbol O); format: in vivo, lambsquarters (Chenopodium album); settings: amount of applied herbicide 320 g/ha
Outline: as §2

[15] = system: chickweed; assay: Test Example 5: herbicidal effect by foliage application, plastic box (Table 20, symbol P); format: in vivo, common chickweed (Stellaria media); settings: foliage application, 320 g/ha, three weeks after application
Outline: as §1

[16] = system: Chinese sprangletop; assay: Test Example 3: herbicidal effect by foliage application, Wagner pot (Table 18, symbol D); format: in vivo, chinese sprangletop (Leptochloa chinensis)
Outline: as §3

[17] = system: persian speedwell; assay: Test Example 4: herbicidal effect by soil treatment (Table 19, symbol R); format: in vivo, Persian speedwell (Veronica persica); settings: amount of applied herbicide 320 g/ha
Outline: as §2

[18] = system: persian speedwell; assay: Test Example 5: herbicidal effect by foliage application, plastic box (Table 20, symbol R); format: in vivo, Persian speedwell (Veronica persica); settings: foliage application, 320 g/ha, three weeks after application
Outline: as §1

[19] = system: Japanese bulrush; assay: Test Example 1: herbicidal activity, application before weed generation under submerged conditions (Table 16, symbol B); format: in vivo, Japanese bulrush (Schoenoplectus juncoides); settings: amount of applied herbicide 320 g/ha
Outline: (§4)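 Emulsion formulation, water-diluted to set dose, was put onto the flooded surface (4 cm depth, alluvial soil) the same day weeds were sown and 2.5-leaf rice transplanted. After 3 weeks at 25-30 °C under glass, each species was rated 0 (≤5% kill) to 5 (≥90% kill).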

[20] = system: southern crabgrass; assay: Test Example 4: herbicidal effect by soil treatment (Table 19, symbol F); format: in vivo, southern crabgrass (Digitaria ciliaris); settings: amount of applied herbicide 320 g/ha
Outline: as §2

[21] = system: barnyard grass; assay: Test Example 4: herbicidal effect by soil treatment (Table 19, symbol H); format: in vivo, barnyard grass (Echinochloa crus-galli); settings: amount of applied herbicide 320 g/ha
Outline: as §2

[22] = system: blackgrass; assay: Test Example 5: herbicidal effect by foliage application, plastic box (Table 20, symbol J); format: in vivo, blackgrass (Alopecurus myosuroides); settings: foliage application, 320 g/ha, three weeks after application
Outline: as §1

[23] = system: redroot pigweed; assay: Test Example 4: herbicidal effect by soil treatment (Table 19, symbol N); format: in vivo, redroot pigweed (Amaranthus retroflexus); settings: amount of applied herbicide 320 g/ha
Outline: as §2

[24] = system: false cleavers; assay: Test Example 4: herbicidal effect by soil treatment (Table 19, symbol Q); format: in vivo, false cleavers (Galium spurium); settings: amount of applied herbicide 320 g/ha
Outline: as §2

[25] = system: late watergrass; assay: Test Example 1: herbicidal activity, application before weed generation under submerged conditions (Table 16, symbol A); format: in vivo, late watergrass (Echinochloa oryzicola); settings: amount of applied herbicide 320 g/ha
Outline: as §4

[26] = system: rice flat sedge; assay: Test Example 3: herbicidal effect by foliage application, Wagner pot (Table 18, symbol E); format: in vivo, rice flat sedge (Cyperus iria)
Outline: as §3

[27] = system: Italian ryegrass; assay: Test Example 4: herbicidal effect by soil treatment (Table 19, symbol K); format: in vivo, Italian ryegrass (Lolium multiflorum); settings: amount of applied herbicide 320 g/ha
Outline: as §2

[28] = system: green foxtail; assay: Test Example 5: herbicidal effect by foliage application, plastic box (Table 20, symbol G); format: in vivo, green foxtail (Setaria viridis); settings: foliage application, 320 g/ha, three weeks after application
Outline: as §1

[29] = system: Italian ryegrass; assay: Test Example 5: herbicidal effect by foliage application, plastic box (Table 20, symbol K); format: in vivo, Italian ryegrass (Lolium multiflorum); settings: foliage application, 320 g/ha, three weeks after application
Outline: as §1

[30] = system: oval-leafed pondweed; assay: Test Example 1: herbicidal activity, application before weed generation under submerged conditions (Table 16, symbol C); format: in vivo, oval-leafed pondweed (Monochoria vaginalis); settings: amount of applied herbicide 320 g/ha
Outline: as §4

[31] = system: chickweed; assay: Test Example 4: herbicidal effect by soil treatment (Table 19, symbol P); format: in vivo, common chickweed (Stellaria media); settings: amount of applied herbicide 320 g/ha
Outline: as §2

[32] = amount of applied herbicide 320 g/ha

SMILES: Cc1nn(CC#N)c(=O)c(-c2c(-c3ccc(F)cc3)sc3ccc(F)cc23)c1O [2-430]
- I: wild oat, herbicidal effect grade [1]: 0 (Herbicidal rate of 5% or less (almost no effect))
- herbicidal effect, G: green foxtail [2]: 0 (Herbicidal rate of 5% or less (almost no effect))
- N: redroot pigweed, herbicidal effect grade [3]: 3 (Herbicidal rate of 40% or more and less than 70%)
- herbicidal effect, L: windgrass [4]: 0 (Herbicidal rate of 5% or less (almost no effect))
- herbicidal effect, M: velvetleaf [5]: 2 (Herbicidal rate of 20% or more and less than 40%)
- L: windgrass, herbicidal effect grade [6]: 0 (Herbicidal rate of 5% or less (almost no effect))
- F: southern crabgrass, herbicidal effect grade [7]: 0 (Herbicidal rate of 5% or less (almost no effect))
- H: barnyard grass, herbicidal effect grade [8]: 1 (Herbicidal rate of 5% or more and less than 20%)
- herbicidal effect, J: blackgrass [9]: 0 (Herbicidal rate of 5% or less (almost no effect))
- O: lambsquarters, herbicidal effect grade [10]: 3 (Herbicidal rate of 40% or more and less than 70%)
- herbicidal effect on H: barnyard grass [11, 32]: 2 (Herbicidal rate of 20% or more and less than 40%)
- M: velvetleaf, herbicidal effect grade [12]: 2 (Herbicidal rate of 20% or more and less than 40%)
- herbicidal effect, I: wild oat [13]: 0 (Herbicidal rate of 5% or less (almost no effect))
- herbicidal effect, O: lambsquarters [14]: 1 (Herbicidal rate of 5% or more and less than 20%)
- P: chickweed, herbicidal effect grade [15]: 5 (Herbicidal rate of 90% or more (almost completely withered))
- herbicidal effect on D: Chinese sprangletop [16, 32]: 0 (Herbicidal rate of 5% or less (almost no effect))
- herbicidal effect, R: persian speedwell [17]: 0 (Herbicidal rate of 5% or less (almost no effect))
- R: persian speedwell, herbicidal effect grade [18]: 4 (Herbicidal rate of 70% or more and less than 90%)
- Herbicidal effect, B: Japanese bulrush [19]: 0 (Herbicidal rate of 5% or less (almost no effect))
- herbicidal effect, F: southern crabgrass [20]: 0 (Herbicidal rate of 5% or less (almost no effect))
- herbicidal effect, H: barnyard grass [21]: 0 (Herbicidal rate of 5% or less (almost no effect))
- J: blackgrass, herbicidal effect grade [22]: 0 (Herbicidal rate of 5% or less (almost no effect))
- herbicidal effect, N: redroot pigweed [23]: 5 (Herbicidal rate of 90% or more (almost completely withered))
- herbicidal effect, Q: false cleavers [24]: 0 (Herbicidal rate of 5% or less (almost no effect))
- Herbicidal effect, A: late watergrass [25]: 3 (Herbicidal rate of 40% or more and less than 70%)
- herbicidal effect on E: rice flat sedge [26, 32]: 3 (Herbicidal rate of 40% or more and less than 70%)
- herbicidal effect, K: Italian ryegrass [27]: 0 (Herbicidal rate of 5% or less (almost no effect))
- G: green foxtail, herbicidal effect grade [28]: 2 (Herbicidal rate of 20% or more and less than 40%)
- K: Italian ryegrass, herbicidal effect grade [29]: 3 (Herbicidal rate of 40% or more and less than 70%)
- Herbicidal effect, C: oval-leafed pondweed [30]: 0 (Herbicidal rate of 5% or less (almost no effect))

SMILES: CCCC(=O)Oc1c(C)nn(C)c(=O)c1-c1c(-c2ccc(F)cc2OC)sc2cc(OC)c(OC)cc12 [5-061]
- herbicidal effect on wild oat (I) [1]: 4 (Herbicidal rate of 70% or more and less than 90%)
- G: green foxtail, herbicidal effect grade [2]: 0 (Herbicidal rate of 5% or less (almost no effect))
- L: windgrass, herbicidal effect grade [4]: 0 (Herbicidal rate of 5% or less (almost no effect))
- M: velvetleaf, herbicidal effect grade [5]: 0 (Herbicidal rate of 5% or less (almost no effect))
- herbicidal effect on windgrass (L) [6]: 2 (Herbicidal rate of 20% or more and less than 40%)
- herbicidal effect on southern crabgrass (F) [7]: 4 (Herbicidal rate of 70% or more and less than 90%)
- herbicidal effect on barnyard grass (H) [8]: 4 (Herbicidal rate of 70% or more and less than 90%)
- J: blackgrass, herbicidal effect grade [9]: 0 (Herbicidal rate of 5% or less (almost no effect))
- herbicidal effect on lambsquarters (O) [10]: 3 (Herbicidal rate of 40% or more and less than 70%)
- herbicidal effect on barnyard grass (H) ([11]; 320 g/ha): 5 (Herbicidal rate of 90% or more (almost completely withered))
- herbicidal effect on velvetleaf (M) [12]: 0 (Herbicidal rate of 5% or less (almost no effect))
- I: wild oat, herbicidal effect grade [13]: 0 (Herbicidal rate of 5% or less (almost no effect))
- O: lambsquarters, herbicidal effect grade [14]: 0 (Herbicidal rate of 5% or less (almost no effect))
- herbicidal effect on Chinese sprangletop (D) ([16]; 320 g/ha): 3 (Herbicidal rate of 40% or more and less than 70%)
- R: persian speedwell, herbicidal effect grade [17]: 2 (Herbicidal rate of 20% or more and less than 40%)
- herbicidal effect on persian speedwell (R) [18]: 5 (Herbicidal rate of 90% or more (almost completely withered))
- Herbicidal effect, B: Japanese bulrush [19]: 3 (Herbicidal rate of 40% or more and less than 70%)
- F: southern crabgrass, herbicidal effect grade [20]: 0 (Herbicidal rate of 5% or less (almost no effect))
- H: barnyard grass, herbicidal effect grade [21]: 0 (Herbicidal rate of 5% or less (almost no effect))
- herbicidal effect on blackgrass (J) [22]: 4 (Herbicidal rate of 70% or more and less than 90%)
- N: redroot pigweed, herbicidal effect grade [23]: 0 (Herbicidal rate of 5% or less (almost no effect))
- Q: false cleavers, herbicidal effect grade [24]: 0 (Herbicidal rate of 5% or less (almost no effect))
- Herbicidal effect, A: late watergrass [25]: 5 (Herbicidal rate of 90% or more (almost completely withered))
- P: chickweed, herbicidal effect grade [31]: 3 (Herbicidal rate of 40% or more and less than 70%)
- herbicidal effect on rice flat sedge (E) ([26]; 320 g/ha): 4 (Herbicidal rate of 70% or more and less than 90%)
- K: Italian ryegrass, herbicidal effect grade [27]: 0 (Herbicidal rate of 5% or less (almost no effect))
- herbicidal effect on green foxtail (G) [28]: 4 (Herbicidal rate of 70% or more and less than 90%)
- herbicidal effect on Italian ryegrass (K) [29]: 4 (Herbicidal rate of 70% or more and less than 90%)
- Herbicidal effect, C: oval-leafed pondweed [30]: 3 (Herbicidal rate of 40% or more and less than 70%)
